{
  "source": "patent US10953015B2",
  "about": "“Use of adenosine receptor signaling to regulate P-gp function” (CORNELL UNIVERSITY, priority 2016, dated 2021)",
  "assay_type_in_all_cases": "cell-based, human",
  "key": {"P-gp [1]": {"tested_on": "P-gp", "assay": "P-gp expression in HEK293T kidney cell line (IFA MFI, western blot)", "details": "Lexiscan® 1, 0.5, 0.1 μM", "procedure": "FIGS. 20A and 20B illustrate that Lexiscan® downregulates P-gp expression in the kidney cell line HEK293T while treatment with antagonist SCH58261 blocks Lexiscan®'s effects. […] HEK293T cells were grown to confluency on coverslips, and treated with varying concentrations of Lexiscan® (1, 0.5, and 0.1 μM) for 15 minutes. Cells were permeabilized and then stained with an antibody to P-gp (C219) and visualized under a fluorescent microscope. FIG. 20B is a graph of the MFI of P-gp in FIG. 20A. DMSO vs. Lexiscan® (“Lex”), *=P<0.05, Lexiscan® (“Lex”)+SCH58261 (“SCH”), ****P<0.0001.\nHEK293T transformed kidney cells were treated with varying concentration of Lexiscan® (1, 0.5, 0.1 μM). Cells were lysed with lysis buffer ([…]), containing protease inhibitor cocktail. Samples were loaded on 7% SDS PAGE at 100V for 1 hour and transferred to nitrocellulose paper. The intensity of bands were analyzed by densitometry and plotted as a graph. Statistics: two-tailed student's t test: *=P<0.5, ****=P<0.0001.\nApplicants investigated whether A2A AR agonists could modulate P-gp expression in the HEK293T human kidney cell line. HEK293T cells were grown to confluency on coverslips and treated with varying concentrations of Lexiscan, Lexiscan® plus the A2A antagonist (SCH58261), or vehicle control for 15 minutes. Cells were then permeabilized, stained with an antibody to P-gp, and visualized under a fluorescent microscope (FIG. 20A). The mean fluorescence intensity (MFI) of P-gp was quantified and graphed in FIG. 20B.\nHEK293T cells were treated with various concentrations of Lexiscan, lysed, loaded onto an SDS-PAGE gel, transferred to a nitrocellulose membrane, and used for western blot analysis."}, "P-gp [2]": {"tested_on": "P-gp", "assay": "Western blot of P-gp expression in MCF7 breast cancer cells", "details": "1 μM, 24, 48, 72 hours", "procedure": "MCF7 cells (human breast cancer cell line) were cultured in 24 well plates until they reached confluency. FIGS. 17A-17C are images of western blots of cells treated with vehicle control (i.e., DMSO) (“D”) or 1 μM of the broad spectrum AR agonist NECA (“N”) (FIG. 17A), 1 μM of the A2A AR agonist Lexiscan® (“L”) (FIG. 17B), or 1 μM of the A2B AR agonist BAY60 (“B”) (FIG. 17C), respectively for 24, 48, 72 hours. Cells were lysed with lysis buffer and expression levels of P-gp, MMP9, or VEGF analyzed by western blot. GAPDH was used as loading a control. FIG. 17D is a graph of experimental results showing that Lexiscan® down-regulates P-gp expression in MCF7 breast cancer cells. MCF7 breast cancer cells were treated with Lex (0.25 μM) concomitant with Rhodamine 123 (“Rho123”). […] Students T test, P<0.001. […] FIG. 17E is a fluorescence microscopy image showing MCF7 breast cancer cells grown on coverslips and treated with vehicle (DMSO, control), or A2 AR agonists, Lexiscan® (1 μM) or A1193 (1 μM) for 15 minutes in the presence of epirubicin. Cells were stained with an antibody to P-gp and mounted with DAPI. FIG. 17F is a graph of the fluorescent intensity quantified from FIG. 17E by measuring the mean fluorescent intensity (“MFI”) of epirubicin (pink) that is present in cell nuclei. ***=P<0.0001."}, "P-gp [3]": {"tested_on": "P-gp", "assay": "P-gp solubility and secretion in HBMVEC (RIPA lysate, CSK cytoskeletal fraction, media)", "excerpt": "FIG. 8A is a schematic diagram of the experimental procedure for analysis of Lexiscan®'s effect on P-gp solubility and excretion in primary brain endothelial cells (“HBMVEC”). FIGS. 8B-8C are western blots and graphs summarizing the experimental result of each western blot. FIGS. 8B-8C show the analysis of P-gp expression of HBMVEC upon activation with Lexiscan® at different time points after lysis with RIPA buffer (FIG. 8B) or CSK buffer to measure P-gp levels in the cytoskeletal fraction (FIG. 8C). Band intensity was normalized to GAPDH and graphed. […] Band intensity was normalized using GAPDH and plotted. FIG. 8E is a western blot of secreted P-gp in HBMVEC upon activation with Lexiscan® in absence or presence of an MMP9 inhibitor: both short and long exposures of western blot from MMP9 inhibitor-treated samples are shown. Band intensity was plotted as a graph. FIG. 8F is a western blot showing the results of an Immunoprecipitation assay of MMP9 with lysate from HBMVEC treated with vehicle (control) or 1 μM of Lexiscan® for 5 minutes. P-gp was pulled down using anti-P-gp antibody and immunoblotted with an anti-MMP9 antibody. FIG. 8G is an immunofluorescence microscopy image of MMP9 on HBMVEC treated with control (top panel) or 1 μM of Lexiscan® (middle panel) for 5 minutes. Cells were stained with P-gp (green) and MMP9 (red). Nucleus was counterstained with DAPI (blue). […] Cell-surface colocalization of P-gp and MMP9 is indicated by arrows. The scale bars indicates 25 μm (upper and middle panels); 5 μm (bottom panels). FIG. 8H is a graph summarizing the intensity of fluorescence of MMP9 from FIG. 8G. Fluorescent intensity of MMP9 was quantified and plotted as graph (n=20). **P<0.01 (2-tailed Student's t test, 1 representative result of 3 different experiments).\n(§1) HCMEC-D3 and HBMVEC cells were plated in 12-well plates and were grown until they reached 100% confluency. […] The intensity of band was analyzed with densitometric analysis and plotted as a graph for analysis of time-course effect of AR signaling on P-gp expression."}, "MMP9": {"tested_on": "MMP9", "assay": "MMP9 expression in HBMVEC (western blot, IFA)", "details": "western blot and IFA", "excerpt": "FIG. 8A is a schematic diagram of the experimental procedure for analysis of Lexiscan®'s effect on P-gp solubility and excretion in primary brain endothelial cells (“HBMVEC”). FIGS. 8B-8C are western blots and graphs summarizing the experimental result of each western blot. FIGS. 8B-8C show the analysis of P-gp expression of HBMVEC upon activation with Lexiscan® at different time points after lysis with RIPA buffer (FIG. 8B) or CSK buffer to measure P-gp levels in the cytoskeletal fraction (FIG. 8C). Band intensity was normalized to GAPDH and graphed. […] Band intensity was normalized using GAPDH and plotted. FIG. 8E is a western blot of secreted P-gp in HBMVEC upon activation with Lexiscan® in absence or presence of an MMP9 inhibitor: both short and long exposures of western blot from MMP9 inhibitor-treated samples are shown. Band intensity was plotted as a graph. […] FIG. 8H is a graph summarizing the intensity of fluorescence of MMP9 from FIG. 8G. Fluorescent intensity of MMP9 was quantified and plotted as graph (n=20). **P<0.01 (2-tailed Student's t test, 1 representative result of 3 different experiments).\nas §1"}, "P-gp [4]": {"tested_on": "P-gp", "assay": "Rho123 accumulation in MCF7 breast cancer cells", "details": "0.025 μM Lexiscan® concomitant with Rho123, vs vehicle control"}},
  "data": [
    {"smiles": "CNC(=O)c1cnn(-c2nc(N)c3ncn([C@@H]4O[C@H](CO)[C@@H](O)[C@H]4O)c3n2)c1", "note": "[Lexiscan®, 1-[6-amino-9-[(2R,3R,4S,5R)-3,4-dihydroxy-5-(hydroxymethyl)oxolan-2-yl]purin-2-yl]-N-methylpyrazole-4-carboxamide]", "values": [
      {"measurement": "P-gp expression (western blot densitometry)", "setting": "P-gp [1]", "result": "significantly down-regulated P-gp expression in transformed HEK293T cells"},
      {"measurement": "P-gp expression (MFI)", "setting": "P-gp [1]; 15 minutes", "result": "down-regulates P-gp expression in HEK293T cells"},
      {"measurement": "P-gp expression (western blot)", "setting": "P-gp [2]", "result": "decreased P-gp expression in cultured MCF7 cells at 48 and 72 hour time points"},
      {"measurement": "Secreted P-gp released into the media", "setting": "P-gp [3]", "result": "An increase in secreted P-gp that was released into the media"},
      {"measurement": "P-gp level in cytoskeletal fraction (CSK buffer)", "setting": "P-gp [3]; up to 60 minutes", "result": "P-gp levels increased at from 5 to 15 minutes, returned to baseline by 30 minutes"},
      {"measurement": "P-gp level in whole lysate (RIPA buffer)", "setting": "P-gp [3]; up to 60 minutes", "result": "P-gp levels declined compared with vehicle control beginning at 5 minutes and were maintained for up to 60 minutes"},
      {"measurement": "MMP9 expression", "setting": "MMP9", "result": "Increased expression of MMP9 was observed beginning at 5 minutes"},
      {"measurement": "Rho123 accumulation", "setting": "P-gp [4]", "result": "significant Rho123 accumulation occurred by 15 minutes and 60 minutes"}
    ]},
    {"smiles": "CCNC(=O)[C@H]1O[C@@H](n2cnc3c(N)ncnc32)[C@H](O)[C@@H]1O", "note": "[NECA, (2S,3S,4R,5R)-5-(6-aminopurin-9-yl)-N-ethyl-3,4-dihydroxyoxolane-2-carboxamide]", "values": [
      {"measurement": "P-gp expression (western blot)", "setting": "P-gp [2]", "result": "decreased P-gp expression in cultured MCF7 cells at 48 and 72 hour time points"}
    ]}
  ]
}
